In patent US20240228572A1 (i2o Therapeutics, Inc., priority 2020, published 2024):
*1 amine or outer side, *2 acyl side, *3 side chain or, on linkers, in order; H or OH if unused. Where a SMILES comes first, the peptide text is derived from it. Bridges are numbered along the chain shown (N, C = ends). Side-chain parts run from the residue outwards. [ ]: non-standard residue; d: D form. The star is where a group is joined. C20 diacid = O=C(O)CCCCCCCCCCCCCCCCCCC(=O)*; γGlu = O=C(O)[C@H](CCC(=O)[*:2])N[*:1]; AEEA = NCCOCCOCC(=O)O; Aib = CC(C)(N)C(=O)O

How the values were obtained:
[1] = biological target: T1, human Glucagon receptor (GCGR) (Homo sapiens, UniProt P47871); assay: cAMP accumulation assay, CHO-K1 cells expressing human GCGR; assay type: cell-based; conditions: mean pEC50, Table 10
T1 construct: A cDNA fragment encoding the full-length open reading frame of the human GCGR; expressed in transfected cells; host or cells: CHO-K1, pcDNA3.1+, Lipofectamine 2000
Description: In the presence of the non-specific cAMP/cGMP phosphodiesterase inhibitor, 3-isobutyl-1-methylxanthine (IBMX), accumulating cAMP can be measured in vitro using common detection methods. Thus, it is possible to estimate an in vitro potency (pEC50) for peptides activating each of these receptors using fit dose-response curves for cAMP accumulation.
A cDNA fragment encoding the full-length open reading frame of the cynomolgus monkey GLP-1R (Genebank accession #XM_028847603 was cloned into pcDNA3.1+ for expression in CHO-K1 cells. A cDNA fragment encoding the full-length open reading frame of the human GCGR (Genebank accession #NM_000160 was cloned into pcDNA3.1+ for expression in CHO-K1 cells. A cDNA fragment encoding the full-length open reading frame of the rat GCGR (Genebank accession #NM_12091 was cloned into pcDNA3.1+ for expression in CHO-K1 cells. A cDNA fragment encoding the full-length open reading frame of the cynomolgus monkey GCGR (Genebank accession #XM_005585255 was cloned into pcDNA3.1+ for expression in CHO-K1 cells.
On day 1, CHO-K1 cells were plated at 1.5 million cells per T75 flask in 90% F12-K media supplemented with 10% FBS. On day 3 cells were transfected with 40 mcg of each expression plasmid using Lipofectamine 2000 transfection reagent. On day 5, cells were dispensed at 1000 cells per well in white 384-well OptiPlates in 5 mcL of assay buffer consisting of 1×HBSS, 5 mM HEPES, 0.5 mM IBMX, and 0.1% casein.
Peptides were serially diluted 4-fold in assay buffer to final concentrations ranging from 1×10^−9 M to 9.5×10^−16 M. Two assay controls consisting of 50 mcM forskolin (cAMP system maximum) or assay buffer only (cAMP system minimum) were also prepared. Five microliters of each peptide-concentration, or assay control, was added to triplicate wells and incubated for thirty minutes at room temperature. During this incubation step a 4× europium labelled cAMP tracer solution and a 4× Ulight®-anti-cAMP solution (consisting of an anti-cAMP monoclonal antibody labelled with Ulight™ dye) was prepared according to the manufacturer's protocol (PerkinElmer LANCE Ultra cAMP kit). Following this incubation, 5 mcL europium labelled cAMP and 5 mcL Ulight anti-cAMP antibody was added to each well. The plate was covered to prevent evaporation and incubated for 60 minutes at room temperature in the dark. Plates were read on an Envision fluorescent plate reader (PerkinElmer).
Test values were first normalized to the system maximum and system minimum averaged values in Excel using the formula: (test value−system min average)/(system max average -system min average)*100. Normalized test values represent a baseline corrected percentage of the system maximum cAMP response induced by forskolin. Data from up to 3 replicate tests were analyzed for each peptide. Potency values were estimated using GraphPad Prism software (v7.04) by fitting data to a 4-parameter logistic curve model: Y=Bottom+(Top−Bottom)/(1+10^((LogEC50−X))). The Hill slope was constrained to 1.0. EC50 values were converted to pEC50 values using the formula: pEC50=−Log (EC50).

[2] = biological target: T2, human GLP-1 receptor (GLP-1R) (Homo sapiens, UniProt P43220); assay: cAMP accumulation assay, CHO-K1 cells stably expressing human GLP-1R; assay type: cell-based; conditions: cAMP accumulation, mean pEC50, Table 10
T2 construct: expressed in transfected cells
T2 sequence (P43220 24-463): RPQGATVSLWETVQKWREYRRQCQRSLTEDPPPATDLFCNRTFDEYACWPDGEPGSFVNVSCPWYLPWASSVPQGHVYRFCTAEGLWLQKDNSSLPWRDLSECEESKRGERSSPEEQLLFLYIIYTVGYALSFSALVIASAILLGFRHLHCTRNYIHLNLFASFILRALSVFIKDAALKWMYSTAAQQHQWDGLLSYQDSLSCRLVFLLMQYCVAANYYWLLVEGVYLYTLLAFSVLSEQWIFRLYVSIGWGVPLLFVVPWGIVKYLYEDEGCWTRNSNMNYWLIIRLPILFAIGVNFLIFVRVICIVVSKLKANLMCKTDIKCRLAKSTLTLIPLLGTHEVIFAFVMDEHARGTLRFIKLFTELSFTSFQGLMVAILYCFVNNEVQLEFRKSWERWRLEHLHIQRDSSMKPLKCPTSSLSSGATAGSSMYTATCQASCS

T1 sequence (P47871 26-477): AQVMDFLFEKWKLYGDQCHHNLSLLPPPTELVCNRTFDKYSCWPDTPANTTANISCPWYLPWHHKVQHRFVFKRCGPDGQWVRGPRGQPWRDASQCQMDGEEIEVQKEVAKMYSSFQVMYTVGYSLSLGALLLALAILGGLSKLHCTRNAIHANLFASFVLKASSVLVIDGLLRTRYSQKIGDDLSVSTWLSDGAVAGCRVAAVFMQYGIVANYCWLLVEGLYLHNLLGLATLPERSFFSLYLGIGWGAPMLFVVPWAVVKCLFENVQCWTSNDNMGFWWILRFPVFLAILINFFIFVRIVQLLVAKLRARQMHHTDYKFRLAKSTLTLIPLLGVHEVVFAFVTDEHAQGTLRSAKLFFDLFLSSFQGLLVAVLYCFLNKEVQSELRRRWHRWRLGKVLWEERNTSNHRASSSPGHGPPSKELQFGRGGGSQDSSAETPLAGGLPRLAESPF

Structure (SMILES): CC(C)C[C@H](NC(=O)[C@H](Cc1ccc(O)cc1)NC(=O)[C@H](CCCCN)NC(=O)[C@H](CO)NC(=O)[C@H](Cc1ccc(O)cc1)NC(=O)[C@H](CC(=O)O)NC(=O)[C@H](CO)NC(=O)[C@@H](NC(=O)[C@H](Cc1ccccc1)NC(=O)[C@@H](NC(=O)CNC(=O)[C@H](Cc1c[nH]cn1)NC(=O)[C@H](CO)NC(=O)[C@@H](N)Cc1ccc(O)cc1)[C@@H](C)O)[C@@H](C)O)C(=O)N[C@@H](CC(=O)O)C(=O)N[C@@H](CCCCNC(=O)CC[C@H](NC(=O)CC[C@H](NC(=O)COCCOCCNC(=O)CCCCCCCCCCCCCCCCCCC(=O)O)C(=O)O)C(=O)O)C(=O)N[C@@H](CCCCN)C(=O)N[C@@H](Cc1ccc(O)cc1)C(=O)N[C@@H](C)C(=O)N[C@H]1CCC(=O)NCCCC[C@@H](C(=O)N[C@@H](Cc2c[nH]c3ccccc23)C(=O)N[C@@H](CC(C)C)C(=O)N[C@@H](CCC(=O)O)C(=O)N[C@@H](CCCCN)C(=O)N[C@@H](CCC(=O)O)C(=O)N2CCC[C@H]2C(=O)N[C@@H](CO)C(=O)N[C@@H](CO)C(=O)NCC(=O)N[C@@H](C)C(=O)N2CCC[C@H]2C(=O)N2CCC[C@H]2C(=O)N2CCC[C@H]2C(=O)N[C@@H](CO)C(=O)O)NC(=O)[C@H](C(C)C)NC(=O)[C@H](Cc2ccccc2)NC(=O)[C@H](CCCCN)NC1=O [Compound A26] (H-YSHGTFTSDYSKYLDK([γGlu-γGlu-AEEA-C20 diacid])KYAEKFVKWLEKEPSSGAPPPS-OH; lactam 20-24; N-terminus assumed)
- EC50 [1]: 7.94 pM
- EC50 [2]: > 1000 pM

Structure (SMILES): CC(C)C[C@H](NC(=O)[C@H](Cc1ccc(O)cc1)NC(=O)[C@H](CCCCN)NC(=O)[C@H](CO)NC(=O)[C@H](Cc1ccc(O)cc1)NC(=O)[C@H](CC(=O)O)NC(=O)[C@H](CO)NC(=O)[C@@H](NC(=O)[C@H](Cc1ccccc1)NC(=O)[C@@H](NC(=O)CNC(=O)[C@H](Cc1c[nH]cn1)NC(=O)[C@H](CO)NC(=O)[C@@H](N)Cc1ccc(O)cc1)[C@@H](C)O)[C@@H](C)O)C(=O)N[C@@H](CC(=O)O)C(=O)N[C@@H](CCCCNC(=O)CC[C@H](NC(=O)CC[C@H](NC(=O)COCCOCCNC(=O)CCCCCCCCCCCCCCCCCCC(=O)O)C(=O)O)C(=O)O)C(=O)N[C@@H](CCCCN)C(=O)N[C@@H](Cc1ccc(O)cc1)C(=O)N[C@@H](C)C(=O)N[C@H]1CCC(=O)NCCCC[C@@H](C(=O)N[C@@H](Cc2c[nH]c3ccccc23)C(=O)N[C@@H](CC(C)C)C(=O)N[C@@H](CCC(=O)O)C(=O)N[C@@H](CC(=O)O)C(=O)N[C@@H](CCC(=O)O)C(=O)N2CCC[C@H]2C(=O)N[C@@H](CO)C(=O)N[C@@H](CO)C(=O)NCC(=O)N[C@@H](CCC(=O)O)C(=O)N2CCC[C@H]2C(=O)N2CCC[C@H]2C(=O)N2CCC[C@H]2C(=O)N[C@@H](CO)C(=O)O)NC(=O)[C@H](C(C)C)NC(=O)[C@H](Cc2ccccc2)NC(=O)[C@H](CCCCN)NC1=O [Compound A31] (H-YSHGTFTSDYSKYLDK([γGlu-γGlu-AEEA-C20 diacid])KYAEKFVKWLEDEPSSGEPPPS-OH; lactam 20-24; N-terminus assumed)
- EC50 [1]: 1.26 pM
- EC50 [2]: > 1000 pM

Structure (SMILES): CC(C)C[C@H](NC(=O)[C@H](Cc1ccc(O)cc1)NC(=O)[C@H](CCCCN)NC(=O)[C@H](CO)NC(=O)[C@H](Cc1ccc(O)cc1)NC(=O)[C@H](CC(=O)O)NC(=O)[C@H](CO)NC(=O)[C@@H](NC(=O)[C@H](Cc1ccccc1)NC(=O)[C@@H](NC(=O)CNC(=O)[C@H](Cc1c[nH]cn1)NC(=O)[C@H](CO)NC(=O)[C@@H](N)Cc1ccc(O)cc1)[C@@H](C)O)[C@@H](C)O)C(=O)N[C@@H](CC(=O)O)C(=O)N[C@@H](CCCCNC(=O)CC[C@H](NC(=O)CC[C@H](NC(=O)COCCOCCNC(=O)CCCCCCCCCCCCCCCCCCC(=O)O)C(=O)O)C(=O)O)C(=O)N[C@@H](CCCCN)C(=O)N[C@@H](Cc1ccc(O)cc1)C(=O)N[C@@H](C)C(=O)N[C@H]1CCC(=O)NCCCC[C@@H](C(=O)N[C@@H](Cc2c[nH]c3ccccc23)C(=O)N[C@@H](CC(C)C)C(=O)N[C@@H](CCC(=O)O)C(=O)N[C@@H](CO)C(=O)N[C@@H](CCC(=O)O)C(=O)N2CCC[C@H]2C(=O)N[C@@H](CO)C(=O)N[C@@H](CO)C(=O)NCC(=O)N[C@@H](C)C(=O)N2CCC[C@H]2C(=O)N2CCC[C@H]2C(=O)N2CCC[C@H]2C(=O)N[C@@H](CO)C(=O)O)NC(=O)[C@H](C(C)C)NC(=O)[C@H](Cc2ccccc2)NC(=O)[C@H](CCCCN)NC1=O [Compound A28] (H-YSHGTFTSDYSKYLDK([γGlu-γGlu-AEEA-C20 diacid])KYAEKFVKWLESEPSSGAPPPS-OH; lactam 20-24; N-terminus assumed)
- EC50 [1]: 2 pM
- EC50 [2]: > 1000 pM

Structure (SMILES): CC(C)C[C@H](NC(=O)[C@H](Cc1ccc(O)cc1)NC(=O)[C@H](CCCCN)NC(=O)[C@H](CO)NC(=O)[C@H](Cc1ccc(O)cc1)NC(=O)[C@H](CC(=O)O)NC(=O)[C@H](CO)NC(=O)[C@@H](NC(=O)[C@H](Cc1ccccc1)NC(=O)[C@@H](NC(=O)CNC(=O)[C@H](Cc1c[nH]cn1)NC(=O)[C@H](CO)NC(=O)[C@@H](N)Cc1ccc(O)cc1)[C@@H](C)O)[C@@H](C)O)C(=O)N[C@@H](CCCCNC(=O)CC[C@H](NC(=O)CC[C@H](NC(=O)COCCOCCNC(=O)CCCCCCCCCCCCCCCCCCC(=O)O)C(=O)O)C(=O)O)C(=O)NC(C)(C)C(=O)N[C@@H](CCCCN)C(=O)N[C@@H](Cc1ccc(O)cc1)C(=O)N[C@@H](C)C(=O)N[C@@H](CCC(N)=O)C(=O)N[C@@H](CCC(=O)O)C(=O)N[C@@H](Cc1ccccc1)C(=O)N[C@H](C(=O)NC(C)(C)C(=O)N[C@@H](Cc1c[nH]c2ccccc12)C(=O)N[C@@H](CC(C)C)C(=O)N[C@@H](CCC(=O)O)C(=O)N[C@@H](CC(=O)O)C(=O)N[C@@H](CCC(=O)O)C(=O)N1CCC[C@H]1C(=O)N[C@@H](CO)C(=O)N[C@@H](CO)C(=O)NCC(=O)N[C@@H](C)C(=O)N1CCC[C@H]1C(=O)N1CCC[C@H]1C(=O)N1CCC[C@H]1C(=O)N[C@@H](CO)C(=O)O)C(C)C [Compound A1] (H-YSHGTFTSDYSKYLK([γGlu-γGlu-AEEA-C20 diacid])[Aib]KYAQEFV[Aib]WLEDEPSSGAPPPS-OH)
- EC50 [1]: 3.16 pM

Structure (SMILES): CC(C)C[C@H](NC(=O)[C@H](Cc1ccc(O)cc1)NC(=O)[C@H](CCCCN)NC(=O)[C@H](CO)NC(=O)[C@H](Cc1ccc(O)cc1)NC(=O)[C@H](CC(=O)O)NC(=O)[C@H](CO)NC(=O)[C@@H](NC(=O)[C@H](Cc1ccccc1)NC(=O)[C@@H](NC(=O)CNC(=O)[C@H](Cc1c[nH]cn1)NC(=O)[C@H](CO)NC(=O)[C@@H](N)Cc1ccc(O)cc1)[C@@H](C)O)[C@@H](C)O)C(=O)N[C@@H](CC(=O)O)C(=O)NC(C)(C)C(=O)N[C@@H](CCCCN)C(=O)N[C@@H](CCCCNC(=O)CC[C@H](NC(=O)CC[C@H](NC(=O)COCCOCCNC(=O)CCCCCCCCCCCCCCCCCCC(=O)O)C(=O)O)C(=O)O)C(=O)N[C@@H](C)C(=O)N[C@@H](CCC(N)=O)C(=O)N[C@@H](CCC(=O)O)C(=O)N[C@@H](Cc1ccccc1)C(=O)N[C@H](C(=O)NC(C)(C)C(=O)N[C@@H](Cc1c[nH]c2ccccc12)C(=O)N[C@@H](CC(C)C)C(=O)N[C@@H](CCC(=O)O)C(=O)N[C@@H](CC(=O)O)C(=O)N[C@@H](CCC(=O)O)C(=O)N1CCC[C@H]1C(=O)N[C@@H](CO)C(=O)N[C@@H](CO)C(=O)NCC(=O)N[C@@H](C)C(=O)N1CCC[C@H]1C(=O)N1CCC[C@H]1C(=O)N1CCC[C@H]1C(=O)N[C@@H](CO)C(=O)O)C(C)C [Compound A4] (H-YSHGTFTSDYSKYLD[Aib]KK([γGlu-γGlu-AEEA-C20 diacid])AQEFV[Aib]WLEDEPSSGAPPPS-OH; N-terminus assumed)
- EC50 [1]: 2 pM
